Experimental data from US20240182531A1, “KV1.3 Blockers” (priority 2021, published 2024).
“And” between values parts separate entries of the source, which are not always exact repeats. Identical values can stand only once. Like-named read-outs stand apart in the source and are kept apart here. Where a SMILES comes first, the peptide text is derived from it. Bridges are numbered along the chain shown (N, C = ends). [ ]: non-standard residue; d: D form. Agp = N=C(N)NC[C@H](N)C(=O)O; Nle = CCCC[C@H](N)C(=O)O; Dab = NCC[C@H](N)C(=O)O

Experiments:
[1] = molecular target: T1, human Kv1.3 voltage-gated K+ channel (Homo sapiens, UniProt P22001); assay: Kv1.3 blocker activity in FLIPR thallium assay; format: cell-based
T1 construct: host or cells: CHO-DUKX
T1 sequence (P22001 whole entry): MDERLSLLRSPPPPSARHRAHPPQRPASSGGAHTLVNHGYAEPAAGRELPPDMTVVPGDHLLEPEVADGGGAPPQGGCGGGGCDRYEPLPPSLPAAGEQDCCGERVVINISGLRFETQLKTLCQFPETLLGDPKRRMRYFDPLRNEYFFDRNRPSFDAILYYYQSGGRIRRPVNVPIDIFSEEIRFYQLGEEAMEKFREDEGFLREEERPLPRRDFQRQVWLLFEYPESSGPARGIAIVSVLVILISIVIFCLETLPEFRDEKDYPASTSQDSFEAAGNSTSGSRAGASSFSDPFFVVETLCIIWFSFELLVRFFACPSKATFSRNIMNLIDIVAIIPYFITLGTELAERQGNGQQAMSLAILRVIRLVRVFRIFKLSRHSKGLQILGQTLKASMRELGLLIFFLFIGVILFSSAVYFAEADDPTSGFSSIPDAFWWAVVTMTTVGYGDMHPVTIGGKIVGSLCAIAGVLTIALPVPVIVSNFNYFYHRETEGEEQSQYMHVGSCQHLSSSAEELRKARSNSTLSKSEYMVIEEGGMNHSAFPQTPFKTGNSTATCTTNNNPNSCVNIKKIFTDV
Procedure, shortened: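 CHO-DUKX cells stably expressing Kv1.3 were pre-incubated with compound for 30 min at 37° C in buffer with 0.02% w/v casein. Depolarization used final stimulus buffer with 5 mM K2SO4 and 1 mM Tl2SO4. Thallium-flux fluorescence was read at maximum response at 50 s, 37° C, and IC50 derived.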

[2] = Pharmacokinetic characterisation after single s.c. injection in Sprague Dawley rats; conditions: male, rat, plasma, sc, 100 nmol/kg
Experimental: Sprague Dawley (males with a body weight of approximately 250-350 g) were given a single subcutaneous (s.c.) injection of each peptide to be tested.
Following s.c. administration of the selected compounds (dose 100 nmol/kg, dosing volume either 2 mL/kg), blood samples were drawn at 5 min, 15 min, 30 min, 60 min, 2 h, 3 h, 4 h, 6 h, 8 h post-dose. At each sampling time point, samples from the rats were drawn by sublingual bleeding. After last sampling the rats were sacrificed by O2/CO2 anaesthesia. The dosing vehicle was 10 mM phosphate, 0.8% NaCl, 0.05% Polysorbate 20 (pH 6.0).
Plasma samples were analyzed after solid phase extraction (SPE) by liquid chromatography mass spectrometry (LC-MS/MS). Mean plasma concentrations were used for calculation of the pharmacokinetic parameters using the non-compartmental approach in Phoenix WinNonlin 6.4 or a later version. Plasma terminal elimination half-life (T½) was determined as In(2)/λz where λz is the magnitude of the slope of the log linear regression of the log concentration versus time profile during the terminal phase. AUCinf is the area under the plasma concentration—time curve extrapolated to infinity (AUCinf=AUClast+Clast/λz, where Clast is the last observed plasma concentration). Cmax is the maximum observed concentration, occurring at Tmax.

human Kv1.1 = molecular target: T2, human Kv1.1 (Homo sapiens, UniProt Q09470); assay: cell-based; conditions: for IC50: CHO cells, QPatch whole-cell, read-out: Potency IC50 Kv1.1; for Selectivity ratio Kv1.1/Kv1.3: ratio of patch clamp IC50 values
T2 construct: expressed in transfected cells; host or cells: CHO
T2 sequence (Q09470 whole entry): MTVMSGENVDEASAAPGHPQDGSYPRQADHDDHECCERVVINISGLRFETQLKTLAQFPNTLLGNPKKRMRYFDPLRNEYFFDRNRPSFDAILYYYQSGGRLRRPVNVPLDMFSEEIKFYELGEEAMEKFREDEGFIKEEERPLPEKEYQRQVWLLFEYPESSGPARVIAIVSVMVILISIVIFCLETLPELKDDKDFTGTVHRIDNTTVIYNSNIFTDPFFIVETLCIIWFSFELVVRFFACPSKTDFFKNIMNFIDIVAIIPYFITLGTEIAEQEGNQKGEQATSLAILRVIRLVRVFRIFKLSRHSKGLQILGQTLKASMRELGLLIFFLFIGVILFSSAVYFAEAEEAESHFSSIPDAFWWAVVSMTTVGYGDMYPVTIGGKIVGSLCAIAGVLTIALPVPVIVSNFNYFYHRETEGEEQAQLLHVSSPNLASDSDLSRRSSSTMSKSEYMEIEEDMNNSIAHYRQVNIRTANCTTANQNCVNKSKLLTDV

human Kv1.2 = molecular target: T3, human Kv1.2 (Homo sapiens, UniProt P16389); assay: cell-based; conditions: for IC50: CHO cells, QPatch whole-cell, read-out: Potency IC50 Kv1.2; for Selectivity ratio Kv1.2/Kv1.3: ratio of patch clamp IC50 values
T3 construct: expressed in transfected cells; host or cells: CHO
T3 sequence (P16389 whole entry): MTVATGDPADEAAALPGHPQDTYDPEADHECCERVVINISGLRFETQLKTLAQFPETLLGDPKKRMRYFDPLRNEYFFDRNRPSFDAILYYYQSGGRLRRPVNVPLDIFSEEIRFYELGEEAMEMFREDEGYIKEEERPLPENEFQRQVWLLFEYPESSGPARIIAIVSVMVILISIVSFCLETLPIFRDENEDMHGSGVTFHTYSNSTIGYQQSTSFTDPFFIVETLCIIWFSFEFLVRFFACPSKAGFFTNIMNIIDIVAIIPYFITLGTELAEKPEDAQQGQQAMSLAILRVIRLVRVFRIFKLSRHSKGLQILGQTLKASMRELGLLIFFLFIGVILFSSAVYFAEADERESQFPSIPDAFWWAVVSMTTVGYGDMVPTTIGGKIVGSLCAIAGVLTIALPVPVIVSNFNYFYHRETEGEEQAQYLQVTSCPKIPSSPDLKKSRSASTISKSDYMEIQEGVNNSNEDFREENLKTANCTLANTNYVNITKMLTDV

human Kv1.3 = molecular target: T4, human Kv1.3 (Homo sapiens, UniProt P22001); assay: cell-based; conditions: CHO cells, QPatch whole-cell; read-out: Potency IC50 Kv1.3
T4 construct: expressed in transfected cells; host or cells: CHO
T4 sequence (P22001 whole entry): as the sequence (P22001 whole entry) above

human Kv1.6 = molecular target: T5, human Kv1.6 (Homo sapiens, UniProt P17658); assay: cell-based; conditions: for IC50: CHO cells, QPatch whole-cell, read-out: Potency IC50 Kv1.6; for Selectivity ratio Kv1.6/Kv1.3: ratio of patch clamp IC50 values
T5 construct: expressed in transfected cells; host or cells: CHO
T5 sequence (P17658 whole entry): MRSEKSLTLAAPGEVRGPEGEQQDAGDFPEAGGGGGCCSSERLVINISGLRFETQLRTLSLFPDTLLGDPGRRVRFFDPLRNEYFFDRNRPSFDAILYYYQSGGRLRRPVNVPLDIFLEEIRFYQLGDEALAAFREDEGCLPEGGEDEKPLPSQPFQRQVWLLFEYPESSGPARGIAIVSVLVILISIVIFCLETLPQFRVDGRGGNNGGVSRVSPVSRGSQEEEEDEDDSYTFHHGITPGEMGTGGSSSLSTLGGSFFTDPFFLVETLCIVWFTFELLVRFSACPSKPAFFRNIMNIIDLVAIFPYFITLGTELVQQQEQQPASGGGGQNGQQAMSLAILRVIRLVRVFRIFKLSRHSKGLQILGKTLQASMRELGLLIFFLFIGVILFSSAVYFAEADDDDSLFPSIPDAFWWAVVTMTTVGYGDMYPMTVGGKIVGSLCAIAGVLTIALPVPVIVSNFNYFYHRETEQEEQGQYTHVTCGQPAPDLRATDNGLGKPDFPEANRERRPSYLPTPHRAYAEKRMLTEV

[3] = system: Human peripheral blood mononuclear cells (PBMCs); format: cell-based; conditions: geometric mean, at least 6 replicates, Example 5b; read-out: anti-CD3 PBMC/IL-2 IC50
Experimental: Human peripheral blood mononuclear cells (PBMCs) were used to assess the effects of Kv1.3 blocker reference compounds on T-cell activation as determined by IL-2 release after stimulation with anti-CD3.
Human PBMCs were obtained from Precision for Medicine (Frederick, MD). Cells from 5 donors were used. Plate-bound anti-CD3 was used to stimulate bulk T cells in the PBMC preparations. Briefly, 96-well plates were coated with anti-CD3 antibody for app. 16 hours at 5° C., using 50 μl of a 1 μg/ml anti-CD3 solution diluted in PBS. Thereafter the plates were washed twice.
Kv1.3 blockers were subsequently diluted in medium (RPMI 1640 with Glutamax-I containing, 10% v/v Fetal Bovine Serum, 1% v/v penicillin-streptomycin Solution) and added in a volume of 50 μl. The compounds indicated in Table 8b were used at concentrations ranging from 0.3 pM to 1000 nM (half log dilutions, starting concentrations varying).
Finally, 50.000 PBMCs in the same medium were added to each well in a volume of 50 μl, giving a final volume of 100 μl per well. The plates were incubated for 20-24 hours in a 37° C./5% CO2 incubator. After centrifugation of the plates, 25 μl supernatant was transferred to IL-2 detection plates (MSD Human IL-2 Tissue Culture Kit, cat #K151AHB-2) and IL-2 was measures as described by the manufacturer (Meso Scale Discovery, Rockville, Maryland, USA).
All values derive from at least 6 replicates.

Rat whole blood = Rat whole blood (Rattus norvegicus, UniProt P15384); format: cell-based; conditions: IL-17A release, thapsigargin, 24 Hr, at least 2 replicates
Rat whole blood, sequence (P15384 whole entry): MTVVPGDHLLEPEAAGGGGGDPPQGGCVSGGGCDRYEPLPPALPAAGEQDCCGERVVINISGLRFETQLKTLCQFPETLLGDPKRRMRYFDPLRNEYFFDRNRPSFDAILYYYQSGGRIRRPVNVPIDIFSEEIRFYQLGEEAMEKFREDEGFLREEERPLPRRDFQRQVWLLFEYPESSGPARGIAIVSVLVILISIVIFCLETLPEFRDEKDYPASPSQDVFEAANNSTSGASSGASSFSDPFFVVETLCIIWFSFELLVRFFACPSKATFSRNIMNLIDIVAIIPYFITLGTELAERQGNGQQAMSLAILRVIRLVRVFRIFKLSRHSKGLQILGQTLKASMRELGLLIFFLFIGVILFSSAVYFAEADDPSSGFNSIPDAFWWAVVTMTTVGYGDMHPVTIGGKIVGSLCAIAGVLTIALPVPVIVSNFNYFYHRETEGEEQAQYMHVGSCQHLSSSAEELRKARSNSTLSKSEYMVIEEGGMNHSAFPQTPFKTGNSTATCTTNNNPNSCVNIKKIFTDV

[4] = system: KLH ear inflammation model in rats; format: in vivo, rat; conditions: +/− SD

| Compound | IC50 [1] [nM] | AUC(0-inf) [2] [µM·h] | Cmax [2] [nM] | half-life [2] [h] | IC50 (human Kv1.1) [nM] | Selectivity ratio Kv1.1/Kv1.3 (human Kv1.1) | IC50 (human Kv1.2) [nM] | Selectivity ratio Kv1.2/Kv1.3 (human Kv1.2) | IC50 (human Kv1.3) [nM] | IC50 (human Kv1.6) [nM] | Selectivity ratio Kv1.6/Kv1.3 (human Kv1.6) | IC50 [3] [nM] | IC50 (Rat whole blood) [nM] | % inhibition of ear thickness (AUC of Δ ear thickness 0-48 hours) ([4]; 50 nmol/kg SC 24 hrs prior to KLH ear challenge) | % inhibition of ear thickness (AUC of Δ ear thickness 0-48 hours) ([4]; 70 nmol/kg SC 24 hrs prior to KLH ear challenge) | % inhibition of ear thickness (AUC of Δ ear thickness 0-48 hours) ([4]; 100 nmol/kg SC 24 hrs prior to KLH ear challenge) |
| --- | --- | --- | --- | --- | --- | --- | --- | --- | --- | --- | --- | --- | --- | --- | --- | --- |
| CCCC[C@H](NC(=O)[C@@H]1CCCN1)C(=O)N[C@@H](CCC(=O)O)C(=O)N[C@@H](CCCC)C(=O)N[C@@H](CCCNC(=N)N)C(=O)N[C@H]1CSSC[C@@H]2NC(=O)[C@H](CCCCN)NC(=O)CNC(=O)[C@H](Cc3ccccc3)NC(=O)[C@H]([C@@H](C)CC)NC(=O)[C@H](CO)NC(=O)CNC(=O)[C@H]([C@@H](C)CC)NC(=O)[C@H](C)NC(=O)[C@H](C)NC(=O)[C@H](CC(C)C)NC(=O)[C@@H]3CSSC[C@@H](C(=O)N[C@@H](Cc4ccc(O)cc4)C(=O)N4CCC[C@H]4C(=O)N[C@@H](CCCNC(=N)N)C(=O)O)NC(=O)[C@H](CCCCN)NC(=O)[C@H](CSSC[C@H](NC(=O)[C@H](CCC(=O)O)NC(=O)[C@H](C(C)C)NC(=O)[C@H](CO)NC(=O)[C@H](C)NC(=O)[C@H](CCN)NC1=O)C(=O)N[C@@H](CCCCN)C(=O)N[C@@H](CCC(N)=O)C(=O)N[C@@H](CCCCN)C(=O)N3)NC(=O)[C@H](CCCCN)NC(=O)[C@H](CCCCN)NC(=O)[C@H](CC(N)=O)NC(=O)[C@H](CCCC)NC2=O [Cpd No. 1] (H-P[Nle]E[Nle]RC[Dab]ASVECKQKCLAAIGSIFGKC[Nle]NKKCKCYPR-OH; disulfide 6-27, 12-32, 16-34) | 0.12 | 0.152 | 90.8 | 1.7 | > 3000 | >100000 | 480 | 17000 | 0.028 | > 3000 | >100000 |  |  |  |  |  |
| CCCC[C@H](NC(=O)[C@@H]1CCCN1)C(=O)N[C@@H](CCC(=O)O)C(=O)N[C@@H](CCCC)C(=O)N[C@@H](CCCNC(=N)N)C(=O)N[C@H]1CSSC[C@@H]2NC(=O)[C@H](CCCCN)NC(=O)CNC(=O)[C@H](Cc3ccccc3)NC(=O)[C@H]([C@@H](C)CC)NC(=O)[C@H](CO)NC(=O)CNC(=O)[C@H]([C@@H](C)CC)NC(=O)[C@H](C)NC(=O)[C@H](C)NC(=O)[C@H](CC(C)C)NC(=O)[C@@H]3CSSC[C@@H](C(=O)N[C@@H](Cc4ccc(O)cc4)C(=O)N4CCC[C@H]4C(=O)N[C@@H](CCCNC(=N)N)C(=O)O)NC(=O)[C@H](CCCCN)NC(=O)[C@H](CSSC[C@H](NC(=O)[C@H](CCC(=O)O)NC(=O)[C@H](C(C)C)NC(=O)[C@H](CO)NC(=O)[C@H](C)NC(=O)[C@H](CNC(=N)N)NC1=O)C(=O)N[C@@H](CCCCN)C(=O)N[C@@H](CCC(N)=O)C(=O)N[C@@H](CCCCN)C(=O)N3)NC(=O)[C@H](CCCCN)NC(=O)[C@H](CCCCN)NC(=O)[C@H](CC(N)=O)NC(=O)[C@H](CCCC)NC2=O [Cpd No. 3] (H-P[Nle]E[Nle]RC[Agp]ASVECKQKCLAAIGSIFGKC[Nle]NKKCKCYPR-OH; disulfide 6-27, 12-32, 16-34) | 0.13 |  |  |  | > 3000 | >46000 | 380 | 6000 | 0.064 | > 3000 | >46000 |  |  |  |  |  |
| CC[C@H](C)[C@@H]1NC(=O)[C@H](C)NC(=O)[C@H](CCCCN)NC(=O)[C@H](CC(C)C)NC(=O)[C@@H]2CSSC[C@@H](C(=O)N[C@@H](Cc3ccc(O)cc3)C(=O)N3CCC[C@H]3C(=O)N[C@@H](CCCNC(=N)N)C(N)=O)NC(=O)[C@H](CCCCN)NC(=O)[C@@H]3CSSC[C@H](NC(=O)[C@H](CCC(=O)O)NC(=O)[C@H](C(C)C)NC(=O)[C@H](CO)NC(=O)[C@H](C)NC(=O)[C@H](CCCCN)NC(=O)[C@@H](NC(=O)[C@H](CCCNC(=N)N)NC(=O)[C@H](CCSC)NC(=O)[C@H](CC(=O)O)NC(=O)[C@H](CCSC)NC(=O)[C@@H](N)CC(N)=O)CSSC[C@H](NC(=O)[C@H](CCCCN)NC(=O)CNC(=O)[C@H](Cc4ccccc4)NC(=O)[C@H]([C@@H](C)CC)NC(=O)[C@H](CO)NC(=O)CNC1=O)C(=O)N[C@@H](CCSC)C(=O)N[C@@H](CC(N)=O)C(=O)N[C@@H](CCCCN)C(=O)N[C@@H](CCCCN)C(=O)N3)C(=O)N[C@@H](CCCCN)C(=O)N[C@@H](CCC(N)=O)C(=O)N[C@@H](CCCCN)C(=O)N2 [compound 29] (H-NMDMRCKASVECKQKCLKAIGSIFGKCMNKKCKCYPR-NH2; disulfide 6-27, 12-32, 16-34) |  |  |  |  |  | >34200 |  | 761 | 0.09 |  | 4144 |  |  |  |  |  |
| CCCC[C@H](NC(=O)[C@@H]1CCCN1)C(=O)N[C@@H](CC(=O)O)C(=O)N[C@@H](CCCC)C(=O)N[C@@H](CCCNC(=N)N)C(=O)N[C@H]1CSSC[C@@H]2NC(=O)[C@H](CCCCN)NC(=O)CNC(=O)[C@H](Cc3ccccc3)NC(=O)[C@H]([C@@H](C)CC)NC(=O)[C@H](CO)NC(=O)CNC(=O)[C@H]([C@@H](C)CC)NC(=O)[C@H](C)NC(=O)[C@H](CCCCN)NC(=O)[C@H](CC(C)C)NC(=O)[C@@H]3CSSC[C@@H](C(=O)N[C@@H](Cc4ccc(O)cc4)C(=O)N4CCC[C@H]4C(=O)N[C@@H](CCCNC(=N)N)C(N)=O)NC(=O)[C@H](CCCCN)NC(=O)[C@H](CSSC[C@H](NC(=O)[C@H](CCC(=O)O)NC(=O)[C@H](C(C)C)NC(=O)[C@H](CO)NC(=O)[C@H](C)NC(=O)[C@H](CO)NC1=O)C(=O)N[C@@H](CCCCN)C(=O)N[C@@H](CCC(N)=O)C(=O)N[C@@H](CCCCN)C(=O)N3)NC(=O)[C@H](CCCCN)NC(=O)[C@H](CCCCN)NC(=O)[C@H](CC(N)=O)NC(=O)[C@H](CCCC)NC2=O [compound 45] (H-P[Nle]D[Nle]RCSASVECKQKCLKAIGSIFGKC[Nle]NKKCKCYPR-NH2; disulfide 6-27, 12-32, 16-34) |  |  |  |  |  | >17100 |  | 5362 |  |  | >17100 | 0.03 | 0.98 | 22.2 (+/−11.1) % | 46.9 (+/−10.9) % and 27.7 (+/−11.5) % | 41.9 (+/−12.5) % |
| CCCC[C@H](NC(=O)[C@H](CC(=O)O)NC(=O)[C@H](CCCC)NC(=O)[C@@H](N)CO)C(=O)N[C@@H](CCCNC(=N)N)C(=O)N[C@H]1CSSC[C@@H]2NC(=O)[C@H](CCCCN)NC(=O)CNC(=O)[C@H](Cc3ccccc3)NC(=O)[C@H]([C@@H](C)CC)NC(=O)[C@H](CO)NC(=O)CNC(=O)[C@H]([C@@H](C)CC)NC(=O)[C@H](C)NC(=O)[C@H](CCCCN)NC(=O)[C@H](CC(C)C)NC(=O)[C@@H]3CSSC[C@@H](C(=O)N[C@@H](Cc4ccc(O)cc4)C(=O)N4CCC[C@H]4C(=O)N[C@@H](CCCNC(=N)N)C(N)=O)NC(=O)[C@H](CCCNC(=N)N)NC(=O)[C@H](CSSC[C@H](NC(=O)[C@H](CCC(=O)O)NC(=O)[C@H](C(C)C)NC(=O)[C@H](CO)NC(=O)[C@H](C)NC(=O)[C@H](CO)NC1=O)C(=O)N[C@@H](CCCCN)C(=O)N[C@@H](CCC(N)=O)C(=O)N[C@@H](CCCCN)C(=O)N3)NC(=O)[C@H](CCCCN)NC(=O)[C@H](CCCCN)NC(=O)[C@H](CC(N)=O)NC(=O)[C@H](CCSC)NC2=O [compound 75] (H-S[Nle]D[Nle]RCSASVECKQKCLKAIGSIFGKCMNKKCRCYPR-NH2; disulfide 6-27, 12-32, 16-34) |  |  |  |  |  |  |  |  | 0.13 |  |  |  | 0.86 |  |  |  |
